# Data from ChEMBL document CHEMBL4251622, “Design, synthesis, and biological evaluation of polo-like kinase 1/eukaryotic elongation factor 2 kinase (PLK1/EEF2K) dual inhibitors for regulating breast cancer cells apoptosis and autophagy” (Eur J Med Chem, 2018).
# How the values were obtained:
# [1] = target: Mitogen-activated protein kinase 9 (Homo sapiens) (UniProt P45984); experiment: Inhibition of wild-type human full length JNK2 (M1 to Q382 residues) expressed in mammalian expression system assessed as residual activity at 1 uM by Kinomescan method relative to control
# Sequence of Mitogen-activated protein kinase 9 (Homo sapiens) (P45984 whole entry, looked up, the tested form may be a part): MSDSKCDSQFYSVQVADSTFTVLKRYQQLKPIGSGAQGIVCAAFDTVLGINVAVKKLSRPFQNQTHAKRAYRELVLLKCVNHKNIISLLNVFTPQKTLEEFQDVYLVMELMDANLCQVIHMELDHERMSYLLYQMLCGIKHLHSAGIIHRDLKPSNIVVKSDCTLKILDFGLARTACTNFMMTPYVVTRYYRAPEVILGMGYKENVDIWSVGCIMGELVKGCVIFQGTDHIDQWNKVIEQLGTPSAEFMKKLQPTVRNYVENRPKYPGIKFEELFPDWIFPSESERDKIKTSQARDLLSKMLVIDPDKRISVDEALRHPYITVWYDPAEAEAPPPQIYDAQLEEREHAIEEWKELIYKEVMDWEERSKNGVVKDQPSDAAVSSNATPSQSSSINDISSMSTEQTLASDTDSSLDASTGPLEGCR
# [2] = target: Inhibitor of nuclear factor kappa-B kinase subunit beta (Homo sapiens) (UniProt O14920); experiment: Inhibition of wild-type human full length IKK-beta (M1 to S756 residues) expressed in mammalian expression system assessed as residual activity at 1 uM by Kinomescan method relative to control
# Sequence of Inhibitor of nuclear factor kappa-B kinase subunit beta (Homo sapiens) (O14920 whole entry, the tested form may be a part): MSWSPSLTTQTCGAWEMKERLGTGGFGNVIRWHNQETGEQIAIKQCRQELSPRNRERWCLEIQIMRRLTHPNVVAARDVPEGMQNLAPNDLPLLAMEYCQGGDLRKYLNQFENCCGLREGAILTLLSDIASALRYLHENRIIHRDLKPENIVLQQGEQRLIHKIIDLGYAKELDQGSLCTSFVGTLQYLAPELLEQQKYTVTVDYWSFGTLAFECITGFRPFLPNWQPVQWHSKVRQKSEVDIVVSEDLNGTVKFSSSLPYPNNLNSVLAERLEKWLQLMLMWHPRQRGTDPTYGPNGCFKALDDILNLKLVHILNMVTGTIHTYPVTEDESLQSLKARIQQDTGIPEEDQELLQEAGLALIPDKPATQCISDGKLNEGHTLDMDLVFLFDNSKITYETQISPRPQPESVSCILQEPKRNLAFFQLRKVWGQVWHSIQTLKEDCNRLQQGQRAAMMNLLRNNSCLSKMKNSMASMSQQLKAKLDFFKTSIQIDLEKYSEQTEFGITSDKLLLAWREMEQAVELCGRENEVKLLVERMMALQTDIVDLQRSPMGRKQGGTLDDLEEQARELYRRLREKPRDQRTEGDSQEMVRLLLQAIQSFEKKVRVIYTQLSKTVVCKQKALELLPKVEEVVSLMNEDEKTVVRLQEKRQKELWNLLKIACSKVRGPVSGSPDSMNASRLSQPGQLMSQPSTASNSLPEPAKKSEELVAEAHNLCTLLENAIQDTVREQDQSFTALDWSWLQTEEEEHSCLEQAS
# BT-483 [3] = experiment: Induction of apoptosis in human BT-483 cells assessed as late apoptotic cells at 5 uM by Annexin V-FITC/propidium iodide staining based flow cytometry (reference value: 0.36%); type: functional
# [4] = target: RAF proto-oncogene serine/threonine-protein kinase (Homo sapiens) (UniProt P04049); experiment: Inhibition of wild-type human partial length RAF1 (I330 to T640 residues) expressed in bacterial expression system assessed as residual activity at 1 uM by Kinomescan method relative to control
# Sequence of RAF proto-oncogene serine/threonine-protein kinase (Homo sapiens) (P04049 whole entry, the tested form may be a part): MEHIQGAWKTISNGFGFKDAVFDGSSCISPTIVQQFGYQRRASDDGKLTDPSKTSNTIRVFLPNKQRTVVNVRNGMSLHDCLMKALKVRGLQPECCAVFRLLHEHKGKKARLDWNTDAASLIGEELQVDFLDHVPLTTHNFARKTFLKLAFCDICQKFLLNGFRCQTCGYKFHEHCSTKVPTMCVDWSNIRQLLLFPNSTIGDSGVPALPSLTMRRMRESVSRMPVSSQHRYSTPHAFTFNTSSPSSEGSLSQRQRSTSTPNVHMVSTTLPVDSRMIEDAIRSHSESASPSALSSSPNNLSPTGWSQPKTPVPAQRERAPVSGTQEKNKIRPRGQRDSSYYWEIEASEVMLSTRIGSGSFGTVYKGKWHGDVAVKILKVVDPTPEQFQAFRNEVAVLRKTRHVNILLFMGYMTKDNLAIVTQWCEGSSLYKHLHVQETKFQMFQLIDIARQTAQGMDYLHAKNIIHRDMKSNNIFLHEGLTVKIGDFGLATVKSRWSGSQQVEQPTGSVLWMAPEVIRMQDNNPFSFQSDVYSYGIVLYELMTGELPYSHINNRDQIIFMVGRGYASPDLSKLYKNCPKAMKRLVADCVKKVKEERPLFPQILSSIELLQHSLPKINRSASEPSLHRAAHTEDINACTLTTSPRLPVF
# BT-483 [5] = experiment: Induction of apoptosis in human BT-483 cells assessed as early apoptotic cells at 5 uM by Annexin V-FITC/propidium iodide staining based flow cytometry (reference value: 2.01%); type: functional
# [6] = target: Bone morphogenetic protein receptor type-2 (Homo sapiens) (UniProt Q13873); experiment: Inhibition of wild-type human partial length BMPR2 (R179 to Q526 residues) expressed in mammalian expression system assessed as residual activity at 1 uM by Kinomescan method relative to control
# Sequence of Bone morphogenetic protein receptor type-2 (Homo sapiens) (Q13873 whole entry, the tested form may be a part): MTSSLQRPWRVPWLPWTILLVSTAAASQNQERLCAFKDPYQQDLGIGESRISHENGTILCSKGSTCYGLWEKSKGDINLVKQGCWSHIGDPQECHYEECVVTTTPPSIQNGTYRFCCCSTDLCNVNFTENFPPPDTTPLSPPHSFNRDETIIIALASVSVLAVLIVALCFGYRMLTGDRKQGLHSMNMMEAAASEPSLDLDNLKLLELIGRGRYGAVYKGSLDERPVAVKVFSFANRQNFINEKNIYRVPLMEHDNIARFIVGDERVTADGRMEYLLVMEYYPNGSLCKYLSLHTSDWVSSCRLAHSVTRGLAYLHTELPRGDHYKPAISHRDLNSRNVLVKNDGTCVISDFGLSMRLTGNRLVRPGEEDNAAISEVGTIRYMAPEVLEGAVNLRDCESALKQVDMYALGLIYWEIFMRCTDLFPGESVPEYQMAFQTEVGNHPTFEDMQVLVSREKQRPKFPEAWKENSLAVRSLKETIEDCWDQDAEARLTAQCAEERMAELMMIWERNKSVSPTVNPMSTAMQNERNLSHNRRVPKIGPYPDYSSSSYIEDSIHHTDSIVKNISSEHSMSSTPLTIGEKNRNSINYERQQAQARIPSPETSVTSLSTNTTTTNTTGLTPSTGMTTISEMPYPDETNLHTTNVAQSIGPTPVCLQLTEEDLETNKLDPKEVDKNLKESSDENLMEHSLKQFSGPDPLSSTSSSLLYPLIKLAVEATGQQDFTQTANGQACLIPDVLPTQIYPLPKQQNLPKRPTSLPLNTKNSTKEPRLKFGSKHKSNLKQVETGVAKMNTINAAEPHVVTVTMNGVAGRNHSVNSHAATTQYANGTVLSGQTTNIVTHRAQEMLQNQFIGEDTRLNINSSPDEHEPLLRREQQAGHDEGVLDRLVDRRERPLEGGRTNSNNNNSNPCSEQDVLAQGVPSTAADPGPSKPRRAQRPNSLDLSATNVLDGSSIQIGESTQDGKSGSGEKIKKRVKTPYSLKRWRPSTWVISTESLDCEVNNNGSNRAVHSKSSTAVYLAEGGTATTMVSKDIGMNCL
# [7] = target: Aurora kinase A (Homo sapiens) (UniProt O14965); experiment: Inhibition of wild-type human partial length AURKA (E122 to K401 residues) expressed in mammalian expression system assessed as residual activity at 1 uM by Kinomescan method relative to control
# Sequence of Aurora kinase A (Homo sapiens) (O14965 whole entry, the tested form may be a part, canonical isoform): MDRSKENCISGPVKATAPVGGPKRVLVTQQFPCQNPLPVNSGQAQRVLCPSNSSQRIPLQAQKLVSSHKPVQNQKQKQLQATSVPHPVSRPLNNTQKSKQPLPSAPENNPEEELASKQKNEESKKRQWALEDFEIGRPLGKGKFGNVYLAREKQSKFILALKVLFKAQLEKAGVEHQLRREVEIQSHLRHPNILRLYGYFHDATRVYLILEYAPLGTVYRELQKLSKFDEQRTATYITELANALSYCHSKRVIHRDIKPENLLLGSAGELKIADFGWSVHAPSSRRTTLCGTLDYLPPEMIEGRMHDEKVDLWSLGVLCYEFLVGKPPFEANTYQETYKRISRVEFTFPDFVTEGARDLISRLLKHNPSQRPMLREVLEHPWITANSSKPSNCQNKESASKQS
# [8] = target: Casein kinase I isoform gamma-2 (Homo sapiens) (UniProt P78368); experiment: Inhibition of wild-type human full length CSNK1G2 (M1 to K415 residues) expressed in bacterial expression system assessed as residual activity at 1 uM by Kinomescan method relative to control
# Sequence of Casein kinase I isoform gamma-2 (Homo sapiens) (P78368 whole entry, looked up, the tested form may be a part, canonical isoform): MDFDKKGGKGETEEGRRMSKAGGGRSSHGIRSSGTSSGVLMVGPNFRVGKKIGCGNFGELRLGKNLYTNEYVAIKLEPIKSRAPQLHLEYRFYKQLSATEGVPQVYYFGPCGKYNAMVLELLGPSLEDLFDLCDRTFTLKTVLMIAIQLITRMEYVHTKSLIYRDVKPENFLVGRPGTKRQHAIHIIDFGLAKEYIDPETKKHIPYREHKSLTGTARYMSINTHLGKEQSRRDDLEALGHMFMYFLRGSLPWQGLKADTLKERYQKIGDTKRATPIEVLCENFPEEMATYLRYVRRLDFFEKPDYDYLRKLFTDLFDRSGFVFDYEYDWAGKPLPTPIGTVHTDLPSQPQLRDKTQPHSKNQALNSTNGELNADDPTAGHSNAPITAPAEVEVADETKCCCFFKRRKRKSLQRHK
# [9] = system: Tyrosine-protein kinase ABL1 (Homo sapiens), P00519 [E255K]; experiment: Inhibition of human phosphorylated ABL1 E255K mutant (S229 to K512 residues) expressed in mammalian expression system assessed as residual activity at 1 uM by Kinomescan method relative to control
# Sequence of Tyrosine-protein kinase ABL1 (Homo sapiens), P00519 [E255K] (P00519 whole entry E255K, the tested form may be a part): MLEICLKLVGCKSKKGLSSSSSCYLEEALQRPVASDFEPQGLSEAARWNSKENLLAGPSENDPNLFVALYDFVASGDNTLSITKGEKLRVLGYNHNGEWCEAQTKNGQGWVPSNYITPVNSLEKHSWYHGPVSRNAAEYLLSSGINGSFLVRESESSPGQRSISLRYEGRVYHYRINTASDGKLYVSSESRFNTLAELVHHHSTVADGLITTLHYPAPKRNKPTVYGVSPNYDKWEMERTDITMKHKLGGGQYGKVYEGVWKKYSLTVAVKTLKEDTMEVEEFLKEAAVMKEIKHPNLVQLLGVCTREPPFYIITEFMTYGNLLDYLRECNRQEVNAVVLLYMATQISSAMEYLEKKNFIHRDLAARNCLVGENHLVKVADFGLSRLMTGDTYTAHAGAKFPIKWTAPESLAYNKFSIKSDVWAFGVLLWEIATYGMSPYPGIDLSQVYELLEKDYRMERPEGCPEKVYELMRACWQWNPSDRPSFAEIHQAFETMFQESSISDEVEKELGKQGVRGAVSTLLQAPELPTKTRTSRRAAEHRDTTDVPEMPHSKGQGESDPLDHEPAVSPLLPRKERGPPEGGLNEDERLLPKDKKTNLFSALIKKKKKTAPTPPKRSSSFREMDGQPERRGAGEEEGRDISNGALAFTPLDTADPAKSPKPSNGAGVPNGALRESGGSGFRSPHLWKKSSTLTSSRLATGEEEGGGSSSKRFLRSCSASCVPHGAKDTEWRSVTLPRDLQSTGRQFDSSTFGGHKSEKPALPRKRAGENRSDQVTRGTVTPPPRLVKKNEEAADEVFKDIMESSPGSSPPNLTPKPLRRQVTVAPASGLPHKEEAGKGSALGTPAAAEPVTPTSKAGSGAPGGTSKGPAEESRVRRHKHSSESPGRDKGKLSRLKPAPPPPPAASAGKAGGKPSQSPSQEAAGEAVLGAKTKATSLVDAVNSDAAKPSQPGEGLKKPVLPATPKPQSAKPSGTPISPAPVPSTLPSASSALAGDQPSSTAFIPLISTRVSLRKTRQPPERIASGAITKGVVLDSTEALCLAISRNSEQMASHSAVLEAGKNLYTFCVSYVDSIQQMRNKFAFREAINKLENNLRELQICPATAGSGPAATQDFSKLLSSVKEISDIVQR
# BT-483 [10] = experiment: Induction of apoptosis in human BT-483 cells by Annexin V-FITC/propidium iodide staining based flow cytometry; type: functional, cell-based
compound,measurement,setting,value
CCNc1cc(-c2ccc(NC(=O)Nc3cccc(Cl)c3)cc2C(F)(F)F)ccn1,Activity,[1],93%
same,Activity,[2],92%
same,Activity,BT-483 [3],6.67%
same,Activity,[4],64%
same,Activity,BT-483 [5],8.64%
same,Activity,[6],94%
same,Activity,[7],100%
same,Activity,[8],90%
same,Activity,[9],82%
same,Activity,BT-483 [10],Dose-dependent effect
